Source: paper PMC10033419, “Blocking NS3–NS4B interaction inhibits dengue virus in non-human primates” (Nature, 2023)
Several values for one entry are separate records, joined by “and”; a condition that tells them apart may be missing. Equal entries are not always repeated. Where two headings read alike, the source gives them in different places.

What was measured:
[1] = Toxicity by high-content imaging; type: cell-based, Aedes albopictus; details: Aedes albopictus, C6/36 cells
Procedure: (§1) A potential toxic effect on host cells was tested in parallel, while omitting virus infection, using the MTS/PMS method (Promega) for Vero cells, or by high-content imaging for C6/36 cells, as described previously. […] RT–qPCR data were analysed using the QuantStudio 12K Flex software (v.1.2.3) or SDS v.1.2 Applied Biosystems software. Inhibition values for antiviral molecules were plotted using KaleidaGraph plotting software (v.4.03, Synergy Software).

C6/36 cells = experiment: Toxicity by high-content imaging; type: cell-based, Aedes albopictus; details: C3/36 cells; read-out: CC50, individual values
Procedure: as §1

DENV-1 G1 Djibouti = experiment: DENV genotype panel RT-qPCR, Vero E6; type: cell-based; details: Dengue virus, DENV1, Vero C1008; mean ± SD
Procedure: (§2) A total of 20 DENV strains, representing the available genotypes within the four DENV serotypes, were used in the in vitro genotype panel, from which 19 viruses were described previously in ref. [3] and one additional virus, DENV-1/45AZ5 (ref. [54]), was added.
as §1

DENV-1 G4 Indonesia = experiment: DENV genotype panel RT-qPCR, Vero E6; type: cell-based; details: Dengue virus, DENV1, Vero C1008
Procedure: as §2, §1

[2] = test system: DENV-1 G5 France - Toulon; experiment: DENV genotype panel RT-qPCR, Vero E6; type: cell-based; details: Dengue virus, DENV1, Vero C1008
Procedure: as §2, §1

DENV-2 American Trinidad = experiment: DENV genotype panel RT-qPCR, Vero E6; type: cell-based; details: Dengue virus, DENV2, Vero C1008
Procedure: as §2, §1

DENV-2 Sylvatic Malaysia = experiment: DENV genotype panel RT-qPCR, Vero E6; type: cell-based; details: Dengue virus, DENV2, Vero C1008
Procedure: as §2, §1

DENV-3 G1 Malaysia = experiment: DENV genotype panel RT-qPCR, Vero E6; type: cell-based; details: Dengue virus, DENV3, Vero C1008
Procedure: as §2, §1

DENV-3 G2 Thailand = experiment: DENV genotype panel RT-qPCR, Vero E6; type: cell-based; details: Dengue virus, DENV3, Vero C1008
Procedure: as §2, §1

DENV-3 G3 Bolivia = experiment: DENV genotype panel RT-qPCR, Vero E6; type: cell-based; details: Dengue virus, DENV3, Vero C1008
Procedure: as §2, §1

DENV-4 G2a Malaysia = experiment: DENV genotype panel RT-qPCR, Vero E6; type: cell-based; details: Dengue virus, DENV4, Vero C1008
Procedure: as §2, §1

DENV-4 G2b Brazil = experiment: DENV genotype panel RT-qPCR, Vero E6; type: cell-based; details: Dengue virus, DENV4, Vero C1008
Procedure: as §2, §1

DENV-4 G3 Thailand = experiment: DENV genotype panel RT-qPCR, Vero E6; type: cell-based; details: Dengue virus, DENV4, Vero C1008
Procedure: as §2, §1

DENV-4 Sylvatic Malaysia = experiment: DENV genotype panel RT-qPCR, Vero E6; type: cell-based; details: Dengue virus, DENV4, Vero C1008
Procedure: as §2, §1

DENV-2 Asian I Thailand = type: cell-based; details: T108I in NS4B
WNV R94224 = experiment: microbe, parasite or virus in culture; type: cell-based; details: West Nile virus
JEV CNS769-Laos 2009 = experiment: microbe, parasite or virus in culture; type: cell-based; details: Japanese encephalitis virus, Vero C1008
rVSV Indiana = experiment: microbe, parasite or virus in culture; type: cell-based, recombinant vesicular stomatitis virus; details: Vesicular stomatitis virus, A549
NS3–NS4B interaction = type: cell-based; details: for EC50: single replicates, read-out: EC50 (NS3/4B interaction), IP
DENV-2/16681 = experiment: NHP DENV-2 study, plasma viral RNA RT-qPCR; design: species or system rhesus macaques (M. mulatta); details: rhesus monkey, in vivo
[3] = test system: unrelated DNA and RNA viruses; experiment: Panel of unrelated DNA and RNA viruses; type: cell-based
[4] = rhesus monkey, in vivo
in vivo = details: both, Indian-origin, rhesus monkey, po

COc1cc(N[C@H](C(=O)c2c[nH]c3ccc(OC(F)(F)F)cc23)c2ccc(Cl)cc2OC)cc(S(C)(=O)=O)c1 [JNJ-1802]
CC50 ([1]; C3/36 cells, mean, read-out: CC50 Mean): 14400 nM
CC50 ([1]; C3/36 cells, read-out: CC50, individual values): 13700 nM
CC50 ([1]; C6/36, read-out: CC50): 14400 ± 1100 nM
CC50 (C6/36 cells): 15200 nM
EC50 (DENV-1 G1 Djibouti): 0.207 ± 0.056 nM
EC90 (DENV-1 G1 Djibouti): 0.83 ± 0.37 nM
EC90 (DENV-1 G4 Indonesia): 0.8 ± 0.31 nM
EC50 (DENV-1 G4 Indonesia; two of four values below threshold): < 0.19 nM
EC90 [2]: 1.02 ± 0.68 nM
EC50 ([2]; one of three values below threshold): < 0.23 nM
EC50 (DENV-2 American Trinidad): 0.063 ± 0.081 nM
EC90 (DENV-2 American Trinidad): 0.162 ± 0.083 nM
EC50 (DENV-2 Sylvatic Malaysia): 0.0634 ± 0.0022 nM
EC90 (DENV-2 Sylvatic Malaysia): 0.265 ± 0.029 nM
EC50 (DENV-3 G1 Malaysia): 1.28 ± 0.46 nM
EC90 (DENV-3 G1 Malaysia): 3.6 ± 1.9 nM
EC50 (DENV-3 G2 Thailand): 1.68 ± 0.24 nM
EC90 (DENV-3 G2 Thailand): 5.8 ± 3 nM
EC50 (DENV-3 G3 Bolivia): 0.9 ± 1.1 nM
EC90 (DENV-3 G3 Bolivia): 6.71 ± 0.66 nM
EC50 (DENV-4 G2a Malaysia): 0.82 ± 0.71 nM
EC90 (DENV-4 G2a Malaysia): 2.1 ± 1.7 nM
EC50 (DENV-4 G2b Brazil): 0.521 ± 0.08 nM
EC90 (DENV-4 G2b Brazil): 1.54 ± 0.15 nM
EC50 (DENV-4 G3 Thailand): 45 nM
EC90 (DENV-4 G3 Thailand): 46 ± 12 nM
EC50 (DENV-4 Sylvatic Malaysia): 0.66 ± 0.42 nM
EC90 (DENV-4 Sylvatic Malaysia): 1.6 ± 1.1 nM
EC50 (DENV-2 Asian I Thailand): 1.4 ± 0.34 nM
EC90 (DENV-2 Asian I Thailand): 2.78 ± 0.037 nM
EC50 (WNV R94224; Vero C1008): 250 nM
EC50 (WNV R94224; Vero C1008, read-out: mean EC50, range): 250 to 1100 nM
EC50 (JEV CNS769-Laos 2009): 590 nM
EC50 (rVSV Indiana): 6900 nM
DENV RNA in plasma (DENV-2/16681): undetectable DENV RNA levels throughout the study period
Viral load Assay 1 FLAG (DENV-2/16681): BLOQ (key: BLOQ = Below limit of detection)
Viral load Assay 2 FLAG (DENV-2/16681): BLOQ (key: BLOQ = Below limit of detection)
Viral load Assay 2 FLAG (2nd column) (DENV-2/16681): BLOQ (key: BLOQ = Below limit of detection)
day first DENV-RNA positive (≥LLOQ) (DENV-2/16681): 5
day first DENV-RNA positive (≥LLOQ), per animal (DENV-2/16681): 21 and 6 and 10
peak viraemia (DENV-2/16681): comparable to the vehicle controls
activity against unrelated DNA and RNA viruses [3]: inactive
adverse effects [4]: No adverse effects were observed
weight loss [4]: not attributable to treatment with JNJ-1802
bioavailability (in vivo): 18 to 27%
AUC(0-t) (in vivo; 0.18 mg/kg): 491 ± 147 ng·h/mL
AUC(0-t) (in vivo; 0.18 mg/kg, AUC(0-24h)): 227 ± 146 ng·h/mL
Cmax (in vivo; 0.18 mg/kg, Cmax): 15.1 ± 8.5 ng/mL
Tmax (in vivo; 0.18 mg/kg, tmax): 8 to 24 h
